Assay results from US12343396B2, “Ultrasound mediated delivery of drugs” (EXACT THERAPEUTICS AS, priority 2013, dated 2025).
≈ marks a conversion by molar mass, not a printed value. Read-outs that look alike come from different tables or passages of the source.

Tests used:
[1] = Microscopy scoring of spontaneously and US activated bubbles; assay type: physicochemical; set-up: key: Score 0 = no or very limited; Score 1 = medium and; Score 2 = high; conditions: oil as C2 microdroplet phase mixed with C1, 37° C.; for Spont. Act. (amount of spontaneously activated bubbles): bubbles >~15 μm; for US Act. (amount of US activated bubbles): insonated 5 s, nominal MI 0.8, 2.25 MHz
Experimental: 641 mg distearoylphosphateidylcholine (DSPC) and 73 mg 1,2-distearoyl-3-(trimethylammonio) propane chloride (DSTAP) were weighed into a 250 mL round bottom flask and 50 ml chloroform was added. The sample was heated under hot tap water until a clear solution was obtained. The chloroform was removed by evaporation to dryness on a rotary evaporator at 350 mm Hg and 40° C., followed by further drying at 50 mm Hg in desiccator over night. Thereafter, 143 mL water was added and the flask again placed on a rotary evaporator and the lipids were rehydrated by full rotational speed and 80° C. water bath temperature for 25 minutes. The samples were placed in refrigerator over night. The lipid dispersion was transferred to a suitable vial and stored in refrigerator until use.
Emulsions were prepared by transferring aliquots of 1 mL of the cold lipid dispersion to 2 mL chromatography vials. To each of seven vials was added 100 μL of the fluorocarbon oils as detailed in Table 11. The chromatography vials were shaken on a CapMix (Espe, GmbH) for 75 seconds. The vials were immediately cooled in ice, pooled and kept cold until use. Coulter counter analysis was performed to determine the volume concentration of the microdroplets and the emulsions were then diluted with water to 10 μl/mL disperse phase.
C1 (as detailed in E1-2) was reconstituted in 2 mL of water and mixed together with the C2 samples prepared in a 10 ml tube to a ratio of 10:1 and shaken carefully by hand. The mixture was then diluted with 7 mL water. The samples were evaluated for spontaneously activated and US activated bubbles by microscopy in manual version of the methodology described in E1-4. One mL of this solution was transferred to a microscope cell where the temperature was stabilised to 37° C. after 2 minutes. The cell was set up so that US sonication, using an ATL 3-2 transducer with a center frequency of 2.25 MHZ, could be applied to the sample. At 200× magnification the entire cell area was scanned and the content of large (>˜15 μm), spontaneously activated bubbles was semi quantitatively assessed by visual inspection. For each sample, a score in the range of 0 to 2 was given, where 0 designate “no or very few large phase shift bubbles observed”, 1 designate “medium number of large phase shift bubbles observed” and 2 designate “large number of large phase shift bubbles observed”. The sample was then insonated for 5 s at a nominal MI of 0.8 and the content of large, US activated bubbles were counted and scored in the same manner. The results from this study is detailed in Table 11 together with the physicochemical characteristics of the compounds investigated.

[2] = cited from earlier work; for vapour pressure (v.p.): at 20° C.; for Log wsol (water solubility): logarithm of Molar solubility
physchem = conditions: for solubility: organic solvent or mixture; for Miscibility in tCIMe: solvents
Experimental: As a starting-point for the study on drug loading, a theoretical evaluation of solubility of different solutes (drugs and chromophores for optical imaging) in pFMCP and a range of other oil components was performed. This evaluation was performed using a state-of-the-art software for assessment of solvent-solute compatibility; Hansen solubility parameters, HSPiP v.4 (Steven Abbott TCNF Ltd.). The HSPIP analysis calculates three basic properties relating to compatibility between substances; Polarity, Dispersion and Hydrogen binding and a distance in this three dimensional space between e.g. a solvent and a solute; the Hansen distance (Hd). The closer the solvent and solute are in this space, the (relatively) better the solubility of the solute in the solvent. […] The miscibility between the solvent and the solubility of the solutes in one of the solvents were experimentally determined.
In addition, a 1:1:2 mixture of said three solvents loaded with Ptx was explored. […] C2 with a 1:1:1 mixture of these components was manufactured as detailed below.

Row | Molecule | Spont. Act. (amount of spontaneously activated bubbles) [1] | US Act. (amount of US activated bubbles) [1] | vapour pressure (v.p.) [2] | Log wsol (water solubility) [2] | other results
1 | FC(F)C(F)(F)C(F)(F)C(F)(F)C(F)(F)C(F)(F)F [1H-perfluorohexane] | 1 | 1 | 238.6 torr | −5.3 | 
2 | CCS(=O)(=O)Nc1ccc2c(c1)/C(=C(/Nc1ccc(CN3CCCCC3)cc1)c1ccccc1)C(=O)N2 [Hesperadin] |  |  |  |  | solubility (physchem; Solubility in tCIMe): ~7.5 mg/mL (≈ 14.5 mM)
3 | 2,2,3,3,3-Pentafluoropropyl methyl | 1 | 0 | 559.6 torr | −2.0 | 
4 | FC(F)(F)C1(F)C(F)(F)C(F)(F)C(F)(F)C1(F)F [pFMCP, perfluoromethyl-cyclopentane] | 0 | 1 |  |  | Miscibility in tCIMe (physchem): ~10%
5 | Methyl-1,1,2,2-tetrafluoroethyl ether | 2 | 0 | 842.4 torr | −1.4 | 
6 | dichlorodifluoroethane [dCldFEt] |  |  |  |  | miscibility in pFMCP, dClMe and tClMe (physchem): completely miscible
7 | CC(=O)O[C@H]1C(=O)[C@@]2(C)[C@H]([C@H](OC(=O)c3ccccc3)[C@]3(O)C[C@H](OC(=O)[C@H](O)[C@@H](NC(=O)c4ccccc4)c4ccccc4)C(C)=C1C3(C)C)[C@]1(OC(C)=O)CO[C@@H]1C[C@@H]2O [Paclitaxel] |  |  |  |  | solubility in solvent mixture (physchem): > 50 mg/mL; solubility (physchem; Solubility in tCIMe): ~350 mg/mL (≈ 410 mM); solubility (physchem; solubility in solvent mixture): > 25 mg/mL
8 | ClCCl [dCIMe, dichloromethane] |  |  |  |  | miscibility in pFMCP (physchem): ~10%; Miscibility in tCIMe (physchem): 100%; Log wsol (water solubility) ([2]; solvents): −0.8
9 | FC(C(F)C(F)(F)C(F)(F)F)C(F)(F)F (stereo not shown) [2H,3H-perfluoropentane] | 1 | 0 | 431.8 torr | −3.2 | 
10 | 1,1,2,3,3,3-Hexafluoropropyl methyl | 2 | 0 | 418.8 torr | −2.5 | 
11 | Perfluorodimethylcyclobutane | 0 | 1 | 579 torr | −5.7 | 
12 | C=CC(F)(F)C(F)(F)C(F)(F)C(F)(F)F [1H, 1H,2H-perfluoro-1-hexene] | 1 | 1 | 353.1 torr | −4.6 | 
13 | chlorotrifluoropropane [CltFPr] |  |  |  |  | miscibility in pFMCP, dClMe and tClMe (physchem): completely miscible; Miscibility in tCIMe (physchem): 100%; Log wsol (water solubility) ([2]; solvents): −2.4
14 | CN(C)C/C=C/C(=O)Nc1cc2c(Nc3ccc(F)c(Cl)c3)ncnc2cc1O[C@H]1CCOC1 [Afatinib] |  |  |  |  | solubility (physchem; Solubility in tCIMe): ~100 mg/mL (≈ 206 mM)
15 | CCCCCCCCCCCCCCCCCCN1C(=CC=CC=CC=CC2=[N+](CCCCCCCCCCCCCCCCCC)c3ccccc3C2(C)C)C(C)(C)c2ccccc21.[I-] [DiR] |  |  |  |  | solubility in solvent mixture (physchem; 1:1:1 mixture of pFMCP, ClrFPr and pFMCP): > 10 mg/mL; Solubility in tCIMe (physchem; target molecules): ~50 mg/mL
16 | CCN(CC)c1ccc2nc3c4ccccc4c(=O)cc-3oc2c1 [Nile Red] |  |  |  |  | solubility (physchem; Solubility in tCIMe): ~50 mg/mL (≈ 157 mM); solubility (physchem; solubility in solvent mixture): > 5 mg/mL
17 | COc1cccc2c1C(=O)c1c(O)c3c(c(O)c1C2=O)C[C@@](O)(C(=O)CO)C[C@@H]3O[C@H]1C[C@H](N)[C@H](O)[C@H](C)O1 [Doxorubicin] |  |  |  |  | solubility (physchem; trichloromethane (tClMe), Solubility in tCIMe, target molecules): ~1 mg/mL (≈ 1.84 mM)
18 | CC(=O)O[C@@]12CO[C@@H]1C[C@H](O)[C@@]1(C)C(=O)[C@H](O)C3=C(C)[C@@H](OC(=O)[C@H](O)[C@@H](NC(=O)OC(C)(C)C)c4ccccc4)C[C@@](O)([C@@H](OC(=O)c4ccccc4)[C@H]21)C3(C)C [Docetaxel] |  |  |  |  | solubility (physchem; Solubility in tCIMe): ~20 mg/mL (≈ 24.8 mM)
19 | FC(F)(F)C(F)(F)C(F)(F)C(F)(F)C(F)(F)C(F)(F)C(F)(F)F [Perfluoroheptane] | 0 | 2 |  |  | 
20 | FC(F)(F)C(F)(F)C(F)(F)C(F)(F)C(F)(F)C(F)(F)F [Perfluorohexane] | 0 | 1 | 359.2 torr | −6.7 | 
